Measured values reported in patent US7220768B2, “Isoxazole-containing thiourea inhibitors useful for treatment of varicella zoster virus” (Wyeth Holdings Corp., priority 2003, dated 2007).
In brackets after ≈: the same amount, converted by molar mass.

What was measured:
HCMV = assay: Human cytomegalovirus yield / microtiter plate assay; format: cell-based; conditions: human foreskin fibroblasts; for IC50: Human betaherpesvirus 5, Fibroblast
Protocol: Yield Assay. Monolayer cultures of human foreskin fibroblasts are infected with HCMV wild-type virus, typically at a multiplicity of infection equal to 0.2, in the presence of inhibitors compound (varying concentrations). At three days post-infection, total virus produced in these cultures (i.e. virus yield) is assessed by harvesting and titering the virus in 12-well plates of cultured human foreskin fibroblasts (done in the absence of inhibitors). Plaques are quantified at 2 weeks post-infection. An inhibitor of HCMV is identified by the reduction in titer of virus yield in the presence, compared to the titer in the absence of compound. In this assay, the relative anti-HCMV activity of an inhibitor is typically determined by calculating the IC50 or IC90 value, that is, the amount of compound required to reduce the virus yield by 50% or 90%, respectively. Table 2 describes IC50 data for compounds tested against HCMV.
Microtiter Plate Assay. Ninety-six well plate cultures of human foreskin fibroblasts are infected in the presence of inhibitor compound with a HCMV recombinant mutant virus whose genome contains the prokaryotic beta-glucuronidase gene (Jefferson, R. A., S. M. Burgess, and D. Hirsh. 1986. Beta-glucuronidase from Escherichia coli as a gene fusion marker. Proc. Natl. Acad. Sci. USA 83:8447–8451) whose expression is controlled by a viral promoter. An example of such a virus is RV145 [T. R. Jones; V. P. Muzithras, and Y. Gluzman. 1991, Replacement mutagenesis of the human cytomegalovirus genome: US10 and US11 gene products are nonessential, J. Virol. 65:5860–5872]. Since it is under the control of a viral promoter, beta-glucuronidase expression is an indirect indicator of growth and replication of HCMV in this assay. At 96 hours post-infection, the infected cell lysates are prepared (using 50 mM sodium phosphate [pH 7.0] containing 0.1% Triton X-100 and 0.1% sarkosyl) and assayed for beta-glucuronidase activity using a substrate for the enzyme which when cleaved yields either a product which can be measured colorimetrically in a spectrophotometer or fluorescently in a microfluorimeter. Examples of such substrates are p-nitrophenyl-beta-D-glucuronide and methylumbelliferylglucuronide, respectively. The presence of an antiviral compound is indicated by the reduced expression of the HCMV genome resident beta-glucuronidase gene, compared to the absence of inhibitor. […] Data from this assay generated using varying amounts of inhibitor compound is also used to estimate the IC50 of an inhibitor compound.

RSV = RSV antiviral assay (Table 2); format: cell-based; conditions: for IC50: human respiratory syncytial virus
VZV = VZV antiviral assay (Table 2); format: cell-based, varicella zoster virus; conditions: for IC50: Human alphaherpesvirus 3
MTS assay (Table 2) = format: cell-based
HSV = HSV Antiviral (ELISA) Assay; format: cell-based, herpes simplex virus; conditions: Vero cells
Protocol: HSV Antiviral (ELISA) Assay. Vero cells (ATCC #CCL-81) are plated on 96-well tissue culture plates at 3.5×10^4 cells per 100 μl tissue culture DMEM (Dulbecco's modified Eagle media) supplemented with 2% fetal bovine serum (FBS) in each well. After overnight incubation, inhibition was determined by comparing the fluorescence obtained in absence of compound to that obtained in the presence of compound.

Compound	IC50 (HCMV)	IC50 (RSV)	IC50 (VZV)	IC50 (MTS assay (Table 2))	IC50 (HSV)	IC50 CMV (HCMV)	IC50 RSV (RSV)	IC50 VZV (VZV)	IC50 MTS (MTS assay (Table 2))	IC50 HSV (HSV)
CC(NC(=S)Nc1ccc(-c2conc2-c2ccc(N)cc2)cc1)c1ccc(F)cc1 (stereo not shown) [Example 18, N-{4-[3-(4-Aminophenyl)-4-isoxazolyl]phenyl}-N′-[1-(4-fluorophenyl)ethyl]thiourea]	2 µg/mL (≈ 4.62 µM)	> 10 µg/mL	0.05 µg/mL (≈ 0.116 µM)	13 µg/mL (≈ 30.1 µM)	> 10 µg/mL	–	–	–	–	–
CC(NC(=S)Nc1ccc(-c2nocc2C(C)(C)C)cc1)c1ccc(F)cc1 (stereo not shown) [Example 13, 1-[4-(4-tert-Butylisoxazol-3-yl)phenyl]-3-[1-(4-fluorophenyl)ethyl]thiourea]	1.3 µg/mL (≈ 3.27 µM)	2.1 µg/mL (≈ 5.28 µM)	0.23 µg/mL (≈ 0.579 µM)	1.5 µg/mL (≈ 3.77 µM)	2.3 µg/mL (≈ 5.79 µM)	–	–	–	–	–
CC(NC(=S)Nc1ccc(-c2conc2-c2ccccc2)cc1)c1ccc(F)cc1 (stereo not shown) [Example 23, N-[1-(4-Fluorophenyl)ethyl]-N′-[4-(3-phenyl-4-isoxazolyl)phenyl]thiourea]	> 10 µg/mL	> 10 µg/mL	0.89 µg/mL (≈ 2.13 µM)	> 15 µg/mL	> 10 µg/mL	–	–	–	–	–
CC(NC(=S)Nc1ccc(-c2conc2-c2csnn2)cc1)c1ccc(F)cc1 (stereo not shown) [Example 19, N-[1-(4-Fluorophenyl)ethyl]-N′-{4-[3-(1,2,3-thiadiazol-4-yl)-4-isoxazolyl]phenyl}thiourea]	0.9 µg/mL (≈ 2.12 µM)	> 10 µg/mL	0.13 µg/mL (≈ 0.306 µM)	> 15 µg/mL	> 10 µg/mL	–	–	–	–	–
CC(NC(=S)Nc1ccc(-c2conc2-c2ccnc3ccccc23)cc1)c1ccc(F)cc1 (stereo not shown) [Example 16, N-[1-(4-Fluorophenyl)ethyl]-N′-{4-[3-(4-quinolinyl)-4-isoxazolyl]phenyl}thiourea]	0.8 µg/mL (≈ 1.71 µM)	2.3 µg/mL (≈ 4.91 µM)	0.08 µg/mL (≈ 0.171 µM)	6.5 µg/mL (≈ 13.9 µM)	3.1 µg/mL (≈ 6.62 µM)	–	–	–	–	–
CC(NC(=S)Nc1ccc(-c2nocc2Cc2ccc(F)cc2)cc1)c1ccc(F)cc1 (stereo not shown) [Example 11, 1-{4-[4-(4-Fluorobenzyl)isoxazol-3-yl]phenyl}-3-[1-(4-fluorophenyl)ethyl]thiourea]	1.8 µg/mL (≈ 4 µM)	4.7 µg/mL (≈ 10.5 µM)	0.16 µg/mL (≈ 0.356 µM)	1.9 µg/mL (≈ 4.23 µM)	2.1 µg/mL (≈ 4.67 µM)	–	–	–	–	–
CC(NC(=S)Nc1ccc(-c2nocc2-c2ccccc2F)cc1)c1ccc(F)cc1 (stereo not shown) [Example 14, 1-[1-(4-Fluorophenyl)ethyl]-3-{4-[4-(2-fluorophenyl)isoxazol-3-yl]phenyl}thiourea]	> 10 µg/mL	> 10 µg/mL	5.4 µg/mL (≈ 12.4 µM)	> 15 µg/mL	> 10 µg/mL	–	–	–	–	–
CC(NC(=S)Nc1ccc(-c2conc2-c2cccnc2)cc1)c1ccc(F)cc1 (stereo not shown) [Example 15, N-[1-(4-Fluorophenyl)ethyl]-N′-{4-[3-(3-pyridinyl)-4-isoxazolyl]phenyl}thiourea]	> 10 µg/mL	> 10 µg/mL	0.19 µg/mL (≈ 0.454 µM)	14 µg/mL (≈ 33.5 µM)	3.1 µg/mL (≈ 7.41 µM)	–	–	–	–	–
CC(NC(=S)Nc1ccc(-c2conc2-c2ncc[nH]2)cc1)c1ccc(F)cc1 (stereo not shown) [Example 24, N-[1-(4-Fluorophenyl)ethyl]-N′-{4-[3-(1 H-imidazol-2-yl)-4-isoxazolyl]phenyl}thiourea]	> 10 µg/mL	> 10 µg/mL	1 µg/mL (≈ 2.45 µM)	> 15 µg/mL	> 10 µg/mL	–	–	–	–	–
CC(NC(=S)Nc1ccc(-c2conc2-c2ccncc2)cc1)c1ccc(F)cc1 (stereo not shown) [Example 17, N-[1-(4-Fluorophenyl)ethyl]-N′-{4-[3-(4-pyridinyl)-4-isoxazolyl]phenyl}thiourea]	0.93 µg/mL (≈ 2.22 µM)	1.5 µg/mL (≈ 3.58 µM)	0.14 µg/mL (≈ 0.335 µM)	5.5 µg/mL (≈ 13.1 µM)	3.7 µg/mL (≈ 8.84 µM)	–	–	–	–	–
CC(NC(=S)Nc1ccc(-c2nocc2Cc2ccccc2)cc1)c1ccc(F)cc1 (stereo not shown) [Example 10, 1-[4-(4-Benzylisoxazol-3-yl)phenyl]-3-[1-(4-fluorophenyl)ethyl]thiourea]	2.4 µg/mL (≈ 5.56 µM)	> 10 µg/mL	0.086 µg/mL (≈ 0.199 µM)	> 15 µg/mL	> 10 µg/mL	–	–	–	–	–
CC(NC(=S)Nc1ccc(-c2conc2-c2ccccn2)cc1)c1ccc(F)cc1 (stereo not shown) [Example 20, N-[1-(4-Fluorophenyl)ethyl]-N′-{4-[3-(2-pyridinyl)-4-isoxazolyl]phenyl}thiourea]	> 10 µg/mL	> 10 µg/mL	0.18 µg/mL (≈ 0.43 µM)	> 15 µg/mL	> 10 µg/mL	–	–	–	–	–
CC(NC(=S)Nc1ccc(-c2nocc2CO)cc1)c1ccc(F)cc1 (stereo not shown) [Example 9, 1-[1-(4-Fluorophenyl)ethyl]-3-[4-(4-hydroxymethylisoxazol-3-yl)phenyl]thiourea]	5.7 µg/mL (≈ 15.3 µM)	7.2 µg/mL (≈ 19.4 µM)	2 µg/mL (≈ 5.38 µM)	> 15 µg/mL	> 10 µg/mL	–	–	–	–	–
CC(NC(=S)Nc1ccc(-c2conc2-c2ccccc2O)cc1)c1ccc(F)cc1 (stereo not shown) [Example 25, N-[1-(4-Fluorophenyl)ethyl]-N′-{4-[3-(2-hydroxyphenyl)-4-isoxazolyl]phenyl}thiourea]	7.9 µg/mL (≈ 18.2 µM)	> 10 µg/mL	1.9 µg/mL (≈ 4.38 µM)	> 15 µg/mL	> 10 µg/mL	–	–	–	–	–
CC(NC(=S)Nc1ccc(-c2conc2-c2ccc(O)cc2)cc1)c1ccc(F)cc1 (stereo not shown) [Example 22, N-[1-(4-Fluorophenyl)ethyl]-N′-{4-[3-(4-hydroxyphenyl)-4-isoxazolyl]phenyl}thiourea]	2.5 µg/mL (≈ 5.77 µM)	9.9 µg/mL (≈ 22.8 µM)	0.61 µg/mL (≈ 1.41 µM)	> 15 µg/mL	> 10 µg/mL	–	–	–	–	–
CC(NC(=S)Nc1ccc(-c2conc2-c2ccc(N(C)C)cc2)cc1)c1ccc(F)cc1 (stereo not shown) [Example 21, N-(4-{3-[4-(Dimethylamino)phenyl]-4-isoxazolyl}phenyl)-N′-[1-(4-fluorophenyl)ethyl]thiourea]	9.3 µg/mL (≈ 20.2 µM)	> 10 µg/mL	0.34 µg/mL (≈ 0.738 µM)	> 15 µg/mL	> 10 µg/mL	–	–	–	–	–
CC(NC(=S)Nc1ccc(-c2nocc2-c2ccccc2)cc1)c1ccc(F)cc1 (stereo not shown) [Example 12, 1-[1-(4-Fluoropheny)ethyl]-3-[4-(4-phenylisoxazol-3-yl)phenyl]thiourea]	–	–	–	–	–	>10 µg/mL	>10 µg/mL	0.37 µg/mL (≈ 0.886 µM)	>15 µg/mL	>10 µg/mL
